“Also recorded” adds a separate entry of the source.
Experiments:
[1] = system: AR-null PCa cells (DU145, PC3); assay: MTT / CellTiter GLO cell viability, AR-null prostate cancer cells; settings: for MTT AR-Neg: Table 3 grade HIGH/MED/LOW, grades not defined; for growth of AR null prostate cancer cells / off target effects on AR-null prostate cancer cell lines compared to JN018: result in words
Description: (§3) The results are means of quadruplicate expts±s.d. Top panel: CellTiter GLO luminescent bioassay (arbitrary units on vertical axis). Bottom panel: classical MTT assay ([blue/yellow]=[viable/non-viable]).
(§4) Experiments were performed in quadruplicate; results are means+/−s.d.
AR null PC3 cells were exposed to the indicated compounds for 6 days; cell viability was measured by MTT assay. Results were normalized to that of vehicle control. Experiments were performed in quadruplicate; results are means+/−s.d.
For each compound and concentration in the figure, the bars represent relative cell viability of 22Rv1, LAPC4, and DU145, from left to right.
For each compound and concentration in the figure, the bars represent relative cell viability of CWR22 and PC3, from left to right.

[2] = system: AR transcriptional activity (MMTV reporter); assay: MMTV reporter assay; format: cell-based; settings: for reporter activity driven by the MMTV promoter: result in words
c-Jun TAD = assay: JUN-TAD fused to GAL4 DNA-binding domain reporter assay; format: cell-based; settings: Table 3 grade HIGH/MED/LOW, grades not defined
Text: (§1) The inhibitory activity of JN018 was further evaluated in experiments in which the AR transactivation domain (TAD) or the c-Jun or CREB TAD was fused to the heterologous GAL4 DNA-binding domain and thereby drive reporter gene expression governed by the GAL4 response element (FIG. 1).

[3] = system: AR positive PCa cells (LNCaP, LNCaP-AR, CWR22, 22Rv1, LAPC4); assay: MTT / CellTiter GLO cell viability, AR positive prostate cancer cells; settings: for MTT AR-Pos: Table 3 grade HIGH/MED/LOW, grades not defined; for growth inhibitory / suppressive effects as compared to JN018 / growth of AR expressing prostate cancer cells: result in words
Description: as §3, §4
Results were normalized to that of vehicle control. Experiments were performed in quadruplicate; results are means+/−s.d.
Next, the effects of the compounds on growth of prostate cancer cell lines in vitro were evaluated.

[4] = system: glucocorticoid response element (GRE) / glucocorticoid receptor; assay: GRE reporter assay; format: cell-based; settings: Table 3 grade HIGH/MED/LOW, grades not defined
Description: FIG. 11B. Effects of JN series compounds in reporter assays for glucocorticoid response element. Experiments were performed in triplicate and results are means+/−s.d.

CREB TAD = assay: CREB-TAD fused to GAL4 DNA-binding domain reporter assay; format: cell-based; settings: Table 3 grade HIGH/MED/LOW, grades not defined
Text: as §1

[5] = system: androgen response element (ARE); assay: ARE reporter assay (tandem copies of the androgen response element); format: cell-based; settings: for ARE: Table 3 grade HIGH/MED/LOW, grades not defined; for reporter activity driven by the ARE: result in words
Description: FIG. 11A. Effects of JN series compounds in reporter assays for androgen response element. Experiments were performed in triplicate and results are means+/−s.d.

[6] = molecular target: T1, AR transactivation domain (TAD) (Homo sapiens, UniProt P10275); assay: AR-TAD fused to GAL4 DNA-binding domain reporter assay; format: cell-based; settings: Table 3 grade HIGH/MED/LOW, grades not defined
T1 construct: expressed in transfected cells
T1 sequence (P10275 1-559 limits assumed): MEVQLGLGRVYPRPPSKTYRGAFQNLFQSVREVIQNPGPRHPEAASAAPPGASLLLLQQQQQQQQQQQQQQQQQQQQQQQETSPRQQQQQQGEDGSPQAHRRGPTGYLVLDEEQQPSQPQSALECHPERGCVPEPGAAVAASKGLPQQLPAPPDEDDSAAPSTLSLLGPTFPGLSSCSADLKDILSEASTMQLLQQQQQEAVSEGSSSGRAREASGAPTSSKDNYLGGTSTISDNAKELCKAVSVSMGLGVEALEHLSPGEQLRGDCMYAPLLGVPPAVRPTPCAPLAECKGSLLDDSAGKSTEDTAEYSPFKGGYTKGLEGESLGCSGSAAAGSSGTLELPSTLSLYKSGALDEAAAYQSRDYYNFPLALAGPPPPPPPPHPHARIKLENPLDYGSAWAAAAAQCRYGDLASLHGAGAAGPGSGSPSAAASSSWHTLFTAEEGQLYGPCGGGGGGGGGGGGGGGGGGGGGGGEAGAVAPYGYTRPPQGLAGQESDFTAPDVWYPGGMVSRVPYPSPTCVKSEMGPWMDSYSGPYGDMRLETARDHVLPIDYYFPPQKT
Text: as §1

[7] = system: LNCaP-AR castration resistant cell line; assay: LNCaP-AR castration resistant xenograft in castrated nude mice; format: in vivo; settings: for tumor growth of LNCaP-AR model in castrated nude mice: oral gavage once per day, five days per week (Mon-Fri); for signs of toxicity in mice: xenograft study, oral gavage Mon-Fri
Description: FIG. 12A. In vivo effects of JN series compounds.
FIG. 12B. In vivo effects of JN series compounds.
Selected compounds were tested in a mouse xenograft model. In this model, the LNCaP-AR castration resistant cell line was grown subcutaneously in the flanks of castrated nude mice. When tumors reached 150-200 mm^3, mice were administered selected JN series compounds, vehicle or positive control by oral gavage once per day for five days per week (Mon-Fri). […].

A549 = assay: Growth of lung cancer cells; format: cell-based; settings: not shown
Text: Further modifications of R1 yielded compounds with a spectrum of growth suppressive effects.

[8] = system: AR transcriptional activity (PSA promoter/enhancer reporter); assay: PSA promoter/enhancer reporter assay; format: cell-based; settings: result in words
Text: (§2) Additional compounds have been generated with sequential numbering through JN136. In vitro biologic activity and biochemical activity/selectivity for AR inhibition have been tested for JN104-133.

[9] = system: non-AR-dependent reporter systems; assay: Non-AR-dependent reporter systems; format: cell-based; settings: result in words
Text: as §2

[10] = system: AP1 mediated reporter activity; assay: AP1 reporter assay; format: cell-based; settings: Table 3 grade HIGH/MED/LOW, grades not defined

SMILES: CN(C/C(=C\c1ccc(Cl)cc1)C(=O)c1ccc(Cl)cc1)Cc1ccccc1 [JN050]
- MTT AR-Neg [1]: MED
- MMTV ([2]; Table 3 grade HIGH/MED/LOW, grades not defined): HIGH
- JUN-TAD (c-Jun TAD): LOW
- MTT AR-Pos [3]: HIGH
- GRE [4]: HIGH
- CREB-TAD (CREB TAD): MED
- ARE [5]: HIGH
- AR-TAD [6]: HIGH

SMILES: C=C(CN(C)Cc1ccccc1)C(=O)/C(=C/c1ccc(Cl)cc1)c1ccc(F)cc1.Cl [JN090]
- tumor growth of LNCaP-AR model in castrated nude mice [7]: inhibit the growth; also recorded: demonstrated anti-tumor effects
- signs of toxicity in mice [7]: limited or no outward signs of toxicity

SMILES: C=C(C)C(=O)NC(=O)/C(=C/c1ccc(Cl)cc1)c1ccccc1 [JN102, (E)-3-(4-Chlorophenyl)-N-methacryloyl-2-phenylacrylamide]
- growth of AR null prostate cancer cells [1]: did not influence growth
- growth inhibitory / suppressive effects as compared to JN018 [3]: improved growth suppressive effects
- growth of AR expressing prostate cancer cells [3]: suppressed growth
- growth of lung cancer cells (A549) (A549): did not influence growth
- reporter activity driven by the ARE [5]: inhibited reporter activity

SMILES: C=C(C)C(=O)NC(=O)/C(=C/c1ccc(Cl)cc1)c1ccc(F)cc1 [JN103]
- growth of AR null prostate cancer cells [1]: did not influence growth
- growth inhibitory / suppressive effects as compared to JN018 [3]: improved growth suppressive effects
- growth of AR expressing prostate cancer cells [3]: suppressed growth
- tumor growth of LNCaP-AR model in castrated nude mice [7]: inhibit the growth; also recorded: demonstrated anti-tumor effects
- signs of toxicity in mice [7]: limited or no outward signs of toxicity
- growth of lung cancer cells (A549) (A549): did not influence growth
- reporter activity driven by the ARE [5]: inhibited reporter activity

SMILES: C=C(C)C(=O)NC(=O)/C(=C/c1ccc(Cl)cc1)c1ccc(F)cc1F [JN118]
- off target effects on AR-null prostate cancer cell lines compared to JN018 [1]: reduced off target effects
- reporter activity driven by the MMTV promoter [2]: excellent inhibitory effects
- AR transcriptional activity in PSA promoter/enhancer reporter [8]: excellent inhibitory effects
- growth inhibitory / suppressive effects as compared to JN018 [3]: improved in vitro growth inhibitory effects
- effects on non-AR-dependent reporter systems [9]: minimal effects
- reporter activity driven by the ARE [5]: excellent inhibitory effects

SMILES: C=C(C)C(=O)NC(=O)/C(=C/c1ccc(C(F)(F)F)cc1)c1ccccc1 [JN121]
- off target effects on AR-null prostate cancer cell lines compared to JN018 [1]: reduced off target effects
- reporter activity driven by the MMTV promoter [2]: excellent inhibitory effects
- AR transcriptional activity in PSA promoter/enhancer reporter [8]: excellent inhibitory effects
- growth inhibitory / suppressive effects as compared to JN018 [3]: improved in vitro growth inhibitory effects
- tumor growth of LNCaP-AR model in castrated nude mice [7]: inhibit the growth; also recorded: demonstrated anti-tumor effects
- signs of toxicity in mice [7]: limited or no outward signs of toxicity
- effects on non-AR-dependent reporter systems [9]: minimal effects
- reporter activity driven by the ARE [5]: excellent inhibitory effects

SMILES: CNC(=O)c1ccc(N2C(=S)N(c3ccc(C#N)c(C(F)(F)F)c3)C(=O)C2(C)C)cc1F [MDV 3100, enzalutamide, reference compound]
- MTT AR-Neg [1]: LOW
- JUN-TAD (c-Jun TAD): LOW
- MTT AR-Pos [3]: HIGH
- AP1 [10]: HIGH
- GRE [4]: LOW
- CREB-TAD (CREB TAD): LOW
- ARE [5]: HIGH
